# Data as given in patent US9833497B2, “Human originated EGF domain proteins and use of the same” (CHENGDU SOURCEBIO LIMITED-LIABILITY COMPANY, priority 2013, dated 2017).
# What was measured:
# Type in all cases: cell-based
# E. coli BL21 = experiment: MIC against Gram-negative bacteria: E. coli BL21; details: E. coli BL21, 10 h cultivation at 37° C.
# Method: (§1) 1. Gram-negative bacteria, such as E. coli BL21, Pseudomonas aeruginosa, Klebsiella pneumonia, Enterobacter cloacae, Aeromonas hydrophila, Citrobacter diversus, Moraxella catarrhalis, Proteus mirabilis, Proteus vulgaris, Serratia marcescens, etc were streaked on solid LB medium and cultured respectively. Then, typical clones were picked, inoculated into common liquid LB medium respectively, and cultured at 37° C. with shaking at 185 rpm until the McFarland specific turbidity was 0.5. The bacterial culture of each of Gram-negative bacteria was centrifuged at 4000×g for 3 min, the supernatant was discarded, and the thalli were resuspended with fresh LB medium.
# (§2) 2. The above-mentioned bacterial suspensions were diluted and inoculated into 96-well plates with the final concentration of the bacterial suspension being 5×10^5 CFU/mL per well.
# (§3) 3. Each of the purified human-originated EGF domain proteins (PRT1 to PRT1498 in Table 1) was added to each of the above wells and subjected to two-fold serial dilution in concentration. Three parallel wells were set up for each concentration in the gradient.
# (§4) 4. The above-mentioned 96-well plates were placed and cultured at 37° C. in shaking incubator shaking at 175 rpm. […] The minimal inhibitory concentration MIC is defined as the lowest concentration of the recombinant protein at which there is no growth of the bacteria.
# Enterobacter cloacae = experiment: MIC against Gram-negative bacteria: Enterobacter cloacae; details: 10 h cultivation at 37° C.; for MIC (μg/mL) E. cloacae / MIC: E. cloacae
# Method: as §1, §2, §3, §4
# Serratia marcescens = experiment: MIC against Gram-negative bacteria: Serratia marcescens; details: 10 h cultivation at 37° C.; for MIC (μg/mL) S. marcescens / MIC: S. marcescens
# Method: as §1, §2, §3, §4
# Pseudomonas aeruginosa = experiment: MIC against Gram-negative bacteria: Pseudomonas aeruginosa; details: 10 h cultivation at 37° C.; for MIC (μg/mL) P. aeruginosa / MIC: P. aeruginosa
# Method: as §1, §2, §3, §4
# E. coli DH5α = experiment: Antibacterial activity: MIC and growth curve against E. coli DH5α in 96-well plate; details: minimal inhibitory concentration against E. coli DH5α; 96-well plate, 5×10^5 CFU/mL, 37° C., judged after 8 h
# Method: 1. E. coli DH5α was exemplified. E. coli DH5α was streaked and cultured on LB solid medium. Then, a typical clone was picked and inoculated into common LB liquid medium, cultured at 37° C. with shaking at 185 rpm until the logarithmic growth phase was reached (OD600 of about 0.5). The bacterial culture was centrifuged at 4000×g for 3 min, the supernatant was discarded, and the thalli were resuspended with fresh LB medium.
# 2. The above-mentioned bacterial suspension was diluted and inoculated into a 96-well plate with the total volume of 100 μL per well and a bacterial count of 5×10^5 CFU/mL.
# 3. The recombinant protein hF VII-EGF1 was added to the above-mentioned wells with the final protein concentration in the well of the highest protein concentration being 50 μg/mL. Basing on this final concentration, a two-fold serial dilution was performed till a protein concentration gradient consisting of 50, 25, and 12.5 μg/mL was set up. Three parallel wells were set up for each concentration in the gradient.
# as §4, with “plate was” for “plates were”, “rpm. Samples were taken every 30 min, the absorbance values were determined at 600 nm wavelength under a ultra violet spectrophotometer, and an inhibition curve was plotted.” for “rpm.”
# According to the experimental procedures in Example 14, the minimal inhibitory concentrations (MIC, μg/mL) of the other human-originated EGF domain proteins (PRT2 to PRT1498 in Table 1) for E. coli DH5α were determined.
# Citrobacter diversus = experiment: MIC against Gram-negative bacteria: Citrobacter diversus; details: 10 h cultivation at 37° C.; for MIC (μg/mL) C. diversus / MIC: C. diversus
# Method: as §1, §2, §3, §4
# Klebsiella pneumonia = experiment: MIC against Gram-negative bacteria: Klebsiella pneumonia; details: 10 h cultivation at 37° C.; for MIC (μg/mL) K. pneumonia / MIC: K. pneumonia
# Method: as §1, §2, §3, §4
# Proteus mirabilis = experiment: MIC against Gram-negative bacteria: Proteus mirabilis; details: 10 h cultivation at 37° C.; for MIC (μg/mL) P. mirabilis / MIC: P. mirabilis
# Method: as §1, §2, §3, §4
# Aeromonas hydrophila = experiment: MIC against Gram-negative bacteria: Aeromonas hydrophila; details: 10 h cultivation at 37° C.; for MIC (μg/mL) A. hydrophila / MIC: A. hydrophila
# Method: as §1, §2, §3, §4
# Proteus vulgaris = experiment: MIC against Gram-negative bacteria: Proteus vulgaris; details: 10 h cultivation at 37° C.; for MIC (μg/mL) P. vulgaris / MIC: P. vulgaris
# Method: as §1, §2, §3, §4
# Moraxella catarrhalis = experiment: MIC against Gram-negative bacteria: Moraxella catarrhalis; details: 10 h cultivation at 37° C.; for MIC (μg/mL) M. catarrhalis / MIC: M. catarrhalis
# Method: as §1, §2, §3, §4
Substance,MIC (μg/mL) E. coli BL21 (E. coli BL21; 5×10^5 CFU/mL),MIC (μg/mL) E. cloacae (Enterobacter cloacae; 5×10^5 CFU/mL),MIC (μg/mL) S. marcescens (Serratia marcescens; 5×10^5 CFU/mL),MIC (μg/mL) P. aeruginosa (Pseudomonas aeruginosa; 5×10^5 CFU/mL),MIC (E. coli DH5α),MIC (μg/mL) C. diversus (Citrobacter diversus; 5×10^5 CFU/mL),MIC (μg/mL) K. pneumonia (Klebsiella pneumonia; 5×10^5 CFU/mL),MIC (μg/mL) P. mirabilis (Proteus mirabilis; 5×10^5 CFU/mL),MIC (μg/mL) A. hydrophila (Aeromonas hydrophila; 5×10^5 CFU/mL),MIC (μg/mL) P. vulgaris (Proteus vulgaris; 5×10^5 CFU/mL),MIC (μg/mL) M. catarrhalis (Moraxella catarrhalis; 5×10^5 CFU/mL),MIC (E. coli BL21),MIC (Enterobacter cloacae),MIC (Serratia marcescens),MIC (Pseudomonas aeruginosa),MIC (Citrobacter diversus),MIC (Klebsiella pneumonia),MIC (Proteus mirabilis),MIC (Aeromonas hydrophila),MIC (Proteus vulgaris),further results
PRT213 (QNCTKTPCLPNAKCEIRNGIEACYCNMGFSGNGVTICE; listed as Homo sapiens),12.5 µg/mL,50 µg/mL,25 µg/mL,12.5 µg/mL,12.5 µg/mL,50 µg/mL,12.5 µg/mL,25 µg/mL,12.5 µg/mL,50 µg/mL,12.5 µg/mL,–,–,–,–,–,–,–,–,–,–
PRT149 (LSNICLSHPCLNGQCIDTVSGYFCKCDSGWTGVNCT; listed as Homo sapiens),12.5 µg/mL,12.5 µg/mL,12.5 µg/mL,12.5 µg/mL,12.5 µg/mL,12.5 µg/mL,25 µg/mL,12.5 µg/mL,25 µg/mL,12.5 µg/mL,25 µg/mL,–,–,–,–,–,–,–,–,–,–
PRT950 (CESGCASSPCQHGGSCHPQRQPPYYSCQCAPPFSGSRCE; listed as Homo sapiens),–,–,–,–,50 µg/mL,–,–,–,–,–,–,12.5 µg/mL,12.5 µg/mL,12.5 µg/mL,50 µg/mL,25 µg/mL,25 µg/mL,50 µg/mL,50 µg/mL,25 µg/mL,MIC (Moraxella catarrhalis): 12.5 µg/mL
PRT936 (VLAPCSPNPCENAAVCKESPNFESYTCLCAPGWQGQRCT; listed as Homo sapiens),–,–,–,–,25 µg/mL,–,–,–,–,–,–,12.5 µg/mL,12.5 µg/mL,50 µg/mL,25 µg/mL,50 µg/mL,50 µg/mL,50 µg/mL,25 µg/mL,12.5 µg/mL,MIC (Moraxella catarrhalis): 12.5 µg/mL
PRT1388 (RDSCPVLCGGNGEYEKGHCVCRHGWKGPECDV; listed as Homo sapiens),–,–,–,–,100 µg/mL,–,–,–,–,–,–,–,–,–,–,–,–,–,–,–,"MIC against E. coli BL21 (E. coli BL21; 5×10^5 CFU/mL): 12.5 µg/mL; MIC against E. cloacae (Enterobacter cloacae; Enterobacter cloacae, 5×10^5 CFU/mL): 12.5 µg/mL; MIC against S. marcescens (Serratia marcescens; Serratia marcescens, 5×10^5 CFU/mL): 12.5 µg/mL; MIC against P. aeruginosa (Pseudomonas aeruginosa; Pseudomonas aeruginosa, 5×10^5 CFU/mL): 12.5 µg/mL; MIC against C. diversus (Citrobacter diversus; Citrobacter diversus, 5×10^5 CFU/mL): 12.5 µg/mL; MIC against K. pneumonia (Klebsiella pneumonia; Klebsiella pneumonia, 5×10^5 CFU/mL): 12.5 µg/mL; MIC against P. mirabilis (Proteus mirabilis; Proteus mirabilis, 5×10^5 CFU/mL): 12.5 µg/mL; MIC against A. hydrophila (Aeromonas hydrophila; Aeromonas hydrophila, 5×10^5 CFU/mL): 25 µg/mL; MIC against P. vulgaris (Proteus vulgaris; Proteus vulgaris, 5×10^5 CFU/mL): 12.5 µg/mL; MIC against M. catarrhalis (Moraxella catarrhalis; Moraxella catarrhalis, 5×10^5 CFU/mL): 25 µg/mL"
